“And” between values parts separate entries of the source, which are not always exact repeats. Identical values can stand only once. “Also recorded” adds a separate entry of the source. Like-named read-outs stand apart in the source and are kept apart here. Marks after values point to notes of the source that are not given here.

The subject of assay [1] is P. aeruginosa BAA-47 cells. In words: NPN accumulation assay. The format is cell-based, Pseudomonas aeruginosa. The note with it: 64 μg/mL polymyxin-B; 64 and 128 μg/mL BPEI600; ~6×10^9 CFU/ml.
Method: Overnight culture of P. aeruginosa BAA-47 was used to inoculate fresh CAMHB media for another 5 hr at 35° C. with shaking. Bacterial cells were collected by centrifugation at 6000 rpm for 40 min and resuspended in PBS. The OD600 of the cell suspension was adjusted to ˜1.0 and kept at room temperature during the experiment. Aliquots (180 μL/well) of the cell suspension were transferred to a 96-well flat-bottom black plate in the format of column 1, PBS blank; column 2, untreated control cells BAA-47; column 3, cells BAA-47+BPEI (sub-lethal concentration). Five technical replicates of each group were conducted. Fluorescent probes Hoechst 33342 bisbenzimide (H33342) or 1-N-phenylnaphthylamine (NPN) was added (20 μL) to each well with a final concentration of 5 μM. Fluorescence was read immediately after the addition of H33342 or NPN by a Tecan Infinite M20 plate reader with the excitation and emission filters of 355 and 460 nm for H33342 or 350 and 420 nm for NPN, respectively. Fluorescence data were normalized to the emission before cells were added in the PBS control, and they were plotted against time to show the cellular uptake of H33342 or NPN over 10 min.
Assay [2] has as its system P. aeruginosa BAA-47 cells. Description: Resazurin cell viability assay. The format is cell-based, Pseudomonas aeruginosa. Particulars: 64 μg/mL. The procedure: All fluorescence studies used a cell density of ˜6×10^9 CFU/mL, while checkerboard assays only inoculated a cell density of 5×10^5 CFU/mL. Therefore, an amount of 128 μg/mL BPEI for fluorescence assays is considered sub-lethal, which is tested and confirmed by resazurin assays. The reduction of resazurin to resorufin occurs via cellular metabolism and thus is an excellent reporter of cell viability. […] First, the cells in the fluorescence assays are viable and thus drug influx and efflux processes control the intracellular concentration rather than widespread disruption of outer membrane that leads to cell lysis.
(In general: The colour change of resazurin is a common sign of viable cells or microbes.)

In the next assay the test system is MRSA OU6 biofilms. In words: Biofilm disrupting assay (crystal violet), MRSA OU6. The format is cell-based, Staphylococcus aureus. The note with it: 64 and 128 μg/mL, 20 hr. The procedure:
This experiment was conducted in parallel with polymyxin B (PmB, a cationic polypeptide antibiotic) and BPEI600. In short, an overnight MRSA OU 6 culture was inoculated in a tissue-culture treated 96-well plate (100 μL of tryptic soy broth or TSB/well) with an inoculation size of 1 μL/well (˜5×10^5 CFU/mL). The plate was incubated at 35° C. for 24 hr to allow the bacteria to form biofilm. It was then washed with water to remove planktonic bacteria and stained with 100 μL of crystal violet solution (0.1%) per well for 15 min. The stained plate was washed excessively with water 5 times to remove any unbound stain and air-dried overnight. […] A negative control (water only) and positive control (30% acetic acid) were also conducted at the same time of treatment. After 20 hr, without touching the biofilm layer in the bottom of the plate, solubilized solution in each treated well was carefully transferred to a new 96-well plate for an OD550 measurement, which represents the corresponding amount of biofilm disrupted by each treatment.

The next assay has as its system MRSA USA 300 ATCC 1717. In words: Checkerboard MIC assay against MRSA USA300 (Example 1). The format is cell-based, Staphylococcus aureus. Particulars: for MIC: Staphylococcus aureus.
In another assay the test system is MRSE 35984 biofilms. In words: Biofilm kill curve. The format is cell-based, Staphylococcus epidermidis. The note with it: 64 μg/mL BPEI, 16 μg/mL oxacillin, or both. The procedure:
Biofilm was grown in an MBEC inoculator plate for 24 hours with shaking to facilitate biofilm formation. At time zero, the prongs were sonicated in PBS for 30 minutes and then plated on agar for CFU counting. […] The prongs on the MBEC inoculator were washed in PBS for 10 seconds and then transferred into the new treated base plate and incubated. Agar CFU plating was performed at 2 hours, 4 hours, 8 hours, and 24 hours for each treatment group. All the agar plating was incubated at 35° C. and counted for colony forming units the next day. Each trial was done in duplicate.

For another assay, the system named is MRSA USA300 (BAA-1717). In words: Checkerboard assay (Example 3), MRSA USA300. The format is cell-based, Staphylococcus aureus. The note with it: for MIC: MRSA USA300, agent alone. The procedure: (§1) Cells were grown at 37° C. The change in OD600 (optical density at 600 nm) was measured and recorded after 24 hr of treatment. Each checkerboard trial was done in triplicate using sterile Greiner CellStar™ flat bottom polystyrene plates, catalog #655180.

The next assay relates to MRSE 35984 biofilm. Description: MBEC assay (challenge plate MIC, recovery plate MBEC), MRSE 35984. The format is cell-based, Staphylococcus epidermidis. The procedure: A sub-culture of MRSE was grown from the cryogenic stock on an agar plate overnight at 35° C. The MBEC plate was inoculated with 150 μL of TSB/well plus 1 μL of a stock culture made from 1 colony/mL of MRSE in TSB. The MBEC inoculator plate was sealed with Parafilm and incubated for 24 hours at 35° C. with 100 rpm shaking to facilitate biofilm formation on the prongs. Following biofilm formation, the lid of the MBEC inoculator was removed and placed in a rinse plate containing 200 μL of sterile PBS for 10 sec. Biofilm growth check (BGC) was performed by breaking a few prongs off using sterile pliers, submerging them in 1 mL PBS, and sonicating them on high for 30 minutes to dislodge the biofilm. After sonication, the biofilm solution was serial-diluted and spot-plated on agar plates for CFU counting to determine the biofilm density on the prongs.
A challenge plate was made in a new pre-sterilized 96-well plate in a checkerboard-assay pattern to test the synergistic activity of BPEI+antibiotic combinations. Antimicrobial solutions were serial-diluted and added to the 96-well plate, which contained 200 μL of cation-adjusted Mueller-Hinton broth (MHB) per well. Following the rinsing step and biofilm growth check, the MBEC inoculator lid was immediately transferred into the prepared antimicrobial challenge plate and incubated at 35° C. for 20-24 hours. After the challenge period, the MBEC inoculator lid was transferred into a recovery plate containing 200 μL of MHB per well, sonicated on high for 30 minutes to dislodge the biofilm and then incubated at 35° C. for 20-24 hour to allow the surviving bacterial cells to grow. After incubation, the OD600 (optical density at 600 nm) of the recovery plate was measured using a Tecan Infinite M20 plate reader to determine the MBEC of the antimicrobial compounds tested. A change in OD600 greater than 0.05 indicated positive growth. Likewise, the OD600 for the base of the challenge plate was measured […] to determine the MICs of the antimicrobial compounds.

Assay [3] has as its system S. epidermidis ATCC 12228 (MSSE 12228). Description: MIC/potentiation against MSSE 12228. The format is cell-based, Staphylococcus epidermidis.
Assay [4] deals with MRSA clinical isolate OU6. In words: Clinical laboratory susceptibility (MicroScan), MRSA isolate 6. The format is cell-based, S. aureus. The note with it: MicroScan PC33 gram positive panel.
For assay [5], the system named is S. epidermidis ATCC 35984 (MRSE 35984). Description: MIC/potentiation against MRSE 35984 (Example 1). The format is cell-based, Staphylococcus epidermidis.
The next assay has as its system MRSE 35984. In words: Checkerboard assay (Example 3), MRSE 35984. The format is cell-based, Staphylococcus epidermidis. The procedure: as §1
The subject of assay [6] is MRSA clinical isolate OU11. In words: Clinical laboratory susceptibility (MicroScan), MRSA isolate 11. Particulars: MicroScan PC33 gram positive panel. The format is cell-based, S. aureus.
Another assay relates to MRSA MW2. Description: Checkerboard assay (Example 3), MRSA MW2. The format is cell-based, Staphylococcus aureus. Particulars: for MIC: MRSA MW2, agent alone. How it is done:
as §1

On to polymyxin B, for which the “fold increase in NPN fluorescence intensity” value in assay [1] is 2.7 fold. The “cell viability (resazurin)” value in assay [2] is “near background levels; also recorded: lethal”. In addition, the “biofilm dispersal (crystal violet)” value in the assay with MRSA OU6 biofilms was “slight dissolution in biomass”.

Turning to `Cc1onc(-c2ccccc2)c1C(=O)N[C@@H]1C(=O)N2[C@@H]1SC(C)(C)[C@@H]2C(=O)O` [oxacillin], in the assay on MRSA USA 300 ATCC 1717 (MRSA USA300), the “MIC with 4 μg/ml (6.75 μM) 600-Da BPEI” value worked out at 1 µg/mL. Further, in the assay on MRSA USA 300 ATCC 1717 (MRSA USA300), the “MIC, antibiotic + 16 μg/ml (17 μM) PEG350BPEI600” value stood at 0.5 µg/mL. The “MIC, antibiotic + 64 μg/ml (40 μM) PEG1000BPEI600” value with MRSA USA 300 ATCC 1717 (MRSA USA300) came to 0.5 µg/mL. In addition, the MIC in the assay with MRSA USA 300 ATCC 1717 (MRSA USA300, agent alone, read-out: MIC of antibiotic only) is 16 µg/mL; with MRSA USA 300 ATCC 1717 (MRSA USA300, read-out: oxacillin MIC with 16 μg/mL of PEG350BPEI600 (17 μM)), 0.5 µg/mL; in the assay with MRSA USA300 (BAA-1717) (listed as OXA) it was 32 µg/mL and 16 µg/mL; in the assay on MRSA USA300 (BAA-1717) (Staphylococcus aureus, read-out: MIC), 32 µg/mL; in the assay on MRSE 35984 biofilm (Staphylococcus epidermidis, MRSE 35984 planktonic, agent alone) it was 16 µg/mL; in assay [4], greater than 2 µg/mL. The MIC was 32 µg/mL with MRSE 35984 (MRSE 35984, agent alone); 32 µg/mL and 64 µg/mL in the assay with MRSE 35984 (MRSE 35984, agent alone, listed as OXA); 64 µg/mL with MRSE 35984 (Staphylococcus epidermidis, MRSE, MRSE 35984, agent alone, read-out: MIC); 4 µg/mL in the assay on MRSE 35984 (Staphylococcus epidermidis, MRSE, read-out: oxacillin MIC with 6.67 μM BPEI600, MRSE planktonic cells); 4 µg/mL in the assay on MRSE 35984 (Staphylococcus epidermidis, MRSE, read-out: oxacillin MIC with 33.37 μM of PEG350-BPEI600, MRSE planktonic cells); greater than 2 µg/mL in assay [6]. The MIC is 32 µg/mL and 16 µg/mL with MRSA MW2 (listed as OXA); 32 µg/mL in the assay with MRSA MW2 (Staphylococcus aureus, MRSA, read-out: MIC). In addition, in the assay with MRSA USA 300 ATCC 1717 (potentiation in fetal bovine serum vs CAMHB without FBS), the “effect of 50% FBS on oxacillin MIC” value was “does not change”. For the same molecule, the “fold reduction of oxacillin MIC” value with MRSA USA 300 ATCC 1717 (with BPEI600, MRSA USA300) was 2 fold; in assay [5] (adding 6.75 μM of BPEI600) it was 256 fold. For the same molecule, the “biofilm cell density at 24 hours” value with MRSE 35984 biofilms is ~10^3 CFU/mL. Moreover, the “OXA MIC in combination with 600 Da BPEI” value in the assay on MRSA USA300 (BAA-1717) (BPEI amount in same cell) stood at 4 µg/mL; in the assay with MRSE 35984 (BPEI amount in same cell), 8 µg/mL; in the assay with MRSA MW2 (BPEI amount in same cell), 2 µg/mL. The “OXA MIC in combination with PEG-BPEI” value in the assay with MRSA USA300 (BAA-1717) (PEG-BPEI amount in same cell) stood at 2 µg/mL; in the assay on MRSE 35984 (PEG-BPEI amount in same cell) it was 8 µg/mL; in the assay on MRSA MW2 (PEG-BPEI amount in same cell), 4 µg/mL. The “MBEC, antibiotic + 4 μg/ml (6.75 μM) 600-Da BPEI” value in the assay with MRSE 35984 biofilm (MRSE 35984 biofilm) is on record as 8* μg/ml. In addition, in the assay with MRSE 35984 biofilm (MRSE 35984 biofilm), the “oxacillin MBEC with 8 μg/mL of BPEI” value amounted to 32 µg/mL. Besides, the “oxacillin MBEC with 64 μg/mL of BPEI” value in the assay with MRSE 35984 biofilm (MRSE 35984 biofilm) turned out to be 8 µg/mL. Further, in the assay with MRSE 35984 biofilm (MRSE biofilm), the “oxacillin MBEC in the presence of 13 μM of BPEI600” value turned out to be 16 µg/mL. Moreover, the “MIC, antibiotic + 2 μg/ml (3.375 μM) 600-Da BPEI” value is 0.1 µg/mL in assay [3] and 2 µg/mL in [5]. Besides, the entries for the “MIC, antibiotic + 4 μg/ml (6.75 μM) 600-Da BPEI” value in [3] and in [5] were 0.1 µg/mL and 0.25 µg/mL, respectively. For the same molecule, the “MIC of antibiotic only” value in assay [3] (agent alone) stood at 0.1 µg/mL; in [5] (agent alone), 64 µg/mL.

The values are drawn from US20210260101A1, “POTENTIATED ANTIBIOTIC COMPOSITIONS AND METHODS OF USE FOR TREATING BACTERIAL INFECTIONS AND BIOFILMS” (priority 2018, published 2021).
